The test deals with protease. The test is described as follows: Storage stability of protease in detergent formulation, residual proteolytic activity by AAPF-pNA assay. The class given is biochemical. Conditions: 1% candidate compound, 1% protease in detergent formulation; stored 8 weeks at 30° C.; AAPF-pNA substrate, 25° C., pH 8.6, 410 nm. On the procedure: The storage stability of protease-containing detergents and cleaning agents was tested for use as enzyme stabilizers in the presence of candidate compounds. For this purpose, the candidate compounds were formulated in the presence of up to 1% (w/w) 1,2-propanediol in a detergent or cleaning agent formulation (see Table 2). The protease (1% PUR) was then added to the formulation, and the formulation stored for 8 weeks at 30° C.
In parallel batches, the proteolytic activity of 1% protease was determined in 4% PG (1,2-propanediol), 85% matrix (see Table 1), then, each following incubation with 1% of the candidate compound (specified in w/w; QS 100% with water) determined in half of the batches in the formulation as indicated in Table 1 by the release of the chromophore para-nitroaniline from the succinyl-alanine-alanine-proline-phenylalanine para-nitroanilide substrate (AAPF-pNA; Bachem L-1400). The release of the pNA caused an increase in the absorbance at 410 nm, the progress over time of which is a measure of enzymatic activity. […]
For evaluation, the initial values for the proteolytic activity of the agent in question were compared to the values determined after storage. […] The stabilizing effect of each tested compound is thus measured as a relative percentage increase in the residual protease activity.

Regarding `CC(=O)[O-].CCn1cc[n+](C)c1` [1-ethyl-3-methylimidazolium acetate], the “Relative residual activity after incubation with KV” value is reported as 122%.

The values are drawn from patent publication US20170321163A1, “ENZYME STABILIZERS” (Henkel AG & Co. KGaA, priority 2014, published 2017).
